Where a name gives a salt, the structure may show the parent alone.
Tested on: HCV (−) RNA synthesis
Experiment: HCV (−) strand RNA synthesis in the inducible HCV replication system, RNase protection assay
Type: cell-based, hepatitis C virus (genotype 1a, strain H77) in CV-1 cells
Set-up: inhibitory effect on HCV (−) RNA synthesis: dose or concentration left out as unconfirmed
Details: for results on HCV (−) RNA synthesis with changed time of addition: drug given 0 and 12 hours before vTF7-3 infection, compared with 20 hours

`NC12CC3CC(CC(C3)C1)C2` [amantadine, Amantadine-HCl] was tested, and the “activity against HCV (−) strand synthesis” value (amantadine 1-100 μg/well, added 20 hours prior to vTF7-3 infection) was “no activity” and the “results on HCV (−) RNA synthesis with changed time of addition” value was “unchanged”.

For `NC(=O)c1ncn([C@@H]2O[C@H](CO)[C@@H](O)[C@H]2O)n1` [ribavirin], the “results on HCV (−) RNA synthesis with changed time of addition” value was “unchanged” and the “inhibitory effect on HCV (−) RNA synthesis” value (ribavirin, added 20 hours prior to vTF7-3) was “No inhibitory effect”.

Source: patent US6828139B2, “Production of replicative hepatitis C virus” (priority 2000, dated 2004)
